Assay results as given in patent US20260216164A1, “INDOLE COMPOUND DECOMPOSING IKZF2, AND USE THEREOF” (KOREA RESEARCH INSTITUTE OF CHEMICAL TECHNOLOGY, priority 2023, published 2026).

Biological target: Helios (IKZF2) (Homo sapiens, UniProt Q96SW2+Q9UKS7)
Test: Screening of Helios protein degraders using Nano-Glo HiBiT cell line (HiBiT-IKZF2)
Type: cell-based
Details: for remaining activity at 10 µM: compound 10 μM, read-out: HiBiT-IKZF2 Residual amount of Helios (%) 10 μM; for remaining activity at 10 µM / remaining activity at 1 µM: 6 hours, HiBiT-Helios knock-in Jurkat cells; for remaining activity at 1 µM: compound 1 μM, read-out: HiBiT-IKZF2 Residual amount of Helios (%) 1 μM
Procedure: To observe intracellular degradation of Helios, the Nano-Glo HiBiT detection system (Promega) was employed. […] The cells expressing Helios fused with HiBiT were validated using the Nano-Glo HiBiT detection system (Promega) according to a predetermined protocol, isolated as single cells, and cultured in complete medium to establish a monoclonal cell line.
After 6 hours, the Nano-Glo HiBiT detection reagent was added to each well in an equal volume to the cell culture medium and incubated at room temperature for 10 minutes. Following incubation, the HiBiT luminescence signal was measured using a microplate reader (Perkin Elmer).

Sequence of Helios (IKZF2) (Q9UKS7 whole entry): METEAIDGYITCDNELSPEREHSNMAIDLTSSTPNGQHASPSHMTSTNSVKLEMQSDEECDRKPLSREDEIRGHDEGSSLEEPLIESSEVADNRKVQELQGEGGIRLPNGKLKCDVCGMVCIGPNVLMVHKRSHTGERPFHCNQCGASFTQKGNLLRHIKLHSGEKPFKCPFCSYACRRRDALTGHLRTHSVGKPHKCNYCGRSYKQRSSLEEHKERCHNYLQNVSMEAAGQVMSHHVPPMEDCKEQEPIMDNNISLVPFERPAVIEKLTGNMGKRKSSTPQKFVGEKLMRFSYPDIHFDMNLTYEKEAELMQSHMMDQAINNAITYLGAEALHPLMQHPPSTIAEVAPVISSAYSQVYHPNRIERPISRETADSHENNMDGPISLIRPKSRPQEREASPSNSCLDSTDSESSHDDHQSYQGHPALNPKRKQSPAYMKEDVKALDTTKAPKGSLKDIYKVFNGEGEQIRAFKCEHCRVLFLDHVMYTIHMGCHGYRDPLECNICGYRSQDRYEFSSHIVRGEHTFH
Sequence of Helios (IKZF2) (Q96SW2 whole entry): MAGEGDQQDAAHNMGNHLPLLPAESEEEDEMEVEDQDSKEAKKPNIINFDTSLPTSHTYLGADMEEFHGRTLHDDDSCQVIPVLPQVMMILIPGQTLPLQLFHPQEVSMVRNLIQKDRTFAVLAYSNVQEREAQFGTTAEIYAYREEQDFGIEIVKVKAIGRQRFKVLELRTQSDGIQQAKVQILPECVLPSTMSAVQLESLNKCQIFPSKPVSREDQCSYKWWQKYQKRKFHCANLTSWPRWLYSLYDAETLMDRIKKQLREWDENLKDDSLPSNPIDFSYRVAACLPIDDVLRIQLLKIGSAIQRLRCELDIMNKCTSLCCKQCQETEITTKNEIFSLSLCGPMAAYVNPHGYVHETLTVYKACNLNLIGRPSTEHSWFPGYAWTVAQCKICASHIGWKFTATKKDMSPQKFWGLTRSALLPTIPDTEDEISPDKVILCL
Sequence of Helios (IKZF2) (Q16531 whole entry partner): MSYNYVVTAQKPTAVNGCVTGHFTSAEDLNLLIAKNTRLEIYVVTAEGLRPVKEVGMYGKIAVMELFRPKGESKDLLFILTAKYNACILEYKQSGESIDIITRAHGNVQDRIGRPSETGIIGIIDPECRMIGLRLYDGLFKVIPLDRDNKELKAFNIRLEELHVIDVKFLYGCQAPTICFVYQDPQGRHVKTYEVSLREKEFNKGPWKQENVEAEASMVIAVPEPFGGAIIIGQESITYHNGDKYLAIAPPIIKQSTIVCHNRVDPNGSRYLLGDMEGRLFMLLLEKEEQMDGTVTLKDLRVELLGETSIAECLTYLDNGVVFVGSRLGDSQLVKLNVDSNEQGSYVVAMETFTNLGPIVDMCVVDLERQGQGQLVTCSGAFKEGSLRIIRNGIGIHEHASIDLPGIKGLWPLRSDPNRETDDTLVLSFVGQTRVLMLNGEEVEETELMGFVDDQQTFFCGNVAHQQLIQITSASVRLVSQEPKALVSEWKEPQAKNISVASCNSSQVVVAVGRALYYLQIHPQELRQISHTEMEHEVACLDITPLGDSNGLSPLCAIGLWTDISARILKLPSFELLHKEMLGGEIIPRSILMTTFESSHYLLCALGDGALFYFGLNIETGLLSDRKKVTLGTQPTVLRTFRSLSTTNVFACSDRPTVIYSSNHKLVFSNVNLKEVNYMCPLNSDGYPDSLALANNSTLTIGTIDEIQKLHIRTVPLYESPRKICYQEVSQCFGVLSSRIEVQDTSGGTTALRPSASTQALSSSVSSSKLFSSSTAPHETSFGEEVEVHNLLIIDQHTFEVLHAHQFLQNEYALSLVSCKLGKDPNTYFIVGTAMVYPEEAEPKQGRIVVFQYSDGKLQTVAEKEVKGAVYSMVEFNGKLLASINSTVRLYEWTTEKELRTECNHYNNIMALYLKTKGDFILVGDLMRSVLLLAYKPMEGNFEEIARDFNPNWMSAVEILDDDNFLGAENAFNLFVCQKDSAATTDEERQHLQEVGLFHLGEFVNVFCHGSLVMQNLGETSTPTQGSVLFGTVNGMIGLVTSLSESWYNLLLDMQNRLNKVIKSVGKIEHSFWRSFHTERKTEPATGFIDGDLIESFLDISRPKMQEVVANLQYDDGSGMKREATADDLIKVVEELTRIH

O=C1CCC(N2Cc3cc(C4CCN(Cc5ccccc5)CC4)ccc3C2=O)C(=O)N1 (stereo not drawn) [Comparative Substance 1 (DKY709), reference compound]
remaining activity at 10 µM: 40%

O=C1CCC(N2Cc3cc(C4CCN(C(=O)c5c[nH]c6cc(Cl)ccc56)CC4)ccc3C2=O)C(=O)N1 (stereo not drawn) [Comparative Substance 2, 3-(5-(1-(6-chloro-1H-indole-3-carbonyl)piperidin-4-yl)-1-oxoinsoindolin-2-yl)piperidine-2,6-dione, reference compound]
remaining activity at 10 µM: 100%

O=C1CCC(N2Cc3cc(C4CCN(C(=O)c5nc6ccc(Cl)cc6[nH]5)CC4)ccc3C2=O)C(=O)N1 (stereo not drawn) [Comparative Substance 3, 3-(5-(1-(6-chloro-1H-benzo[d]imidazole-2-carbonyl)piperidin-4-yl)-1-oxoinsoindolin-2-yl)piperidine-2,6-dione, reference compound]
IKZF2 degradation activity (in words, comment on Table 1) (as shown in Table 1): no IKZF2 degradation activity was observed
remaining activity at 10 µM: 100%

COc1ccc2cc(C(=O)Nc3ccc4c(c3)CN(C3CCC(=O)NC3=O)C4=O)ccc2c1 (stereo not drawn) [Comparative Substance 4, N-(2-(2,6-dioxopiperidin-3-yl)-1-oxoindolin-5-yl)-6-methoxy-2-naphthamide, reference compound]
remaining activity at 1 µM: 58%
remaining activity at 10 µM: 56.2%

O=C1CCC(N2Cc3cc(C4CCN(C(=O)c5cc6ccc(Cl)c(Cl)c6[nH]5)CC4)ccc3C2=O)C(=O)N1 (stereo not drawn) [Compound 2, 3-(5-(1-(6,7-dichloro-1H-indole-2-carbonyl)piperidin-4-yl)-1-oxoinsoindolin-2-yl)piperidine-2,6-dione]
remaining activity at 1 µM: 78.3%
remaining activity at 10 µM: 92.1%

O=C1CCC(N2Cc3cc(C4CCN(C(=O)c5cc6cc(Cl)ccc6[nH]5)CC4)ccc3C2=O)C(=O)N1 (stereo not drawn) [Compound 3, 3-(5-(1-(5-chloro-1H-indole-2-carbonyl)piperidin-4-yl)-1-oxoinsoindolin-2-yl)piperidine-2,6-dione]
remaining activity at 1 µM: 102%
remaining activity at 10 µM: 106%

O=C1CCC(N2Cc3cc(C4CCN(C(=O)C5=Nc6cccc(Cl)c6C5)CC4)ccc3C2=O)C(=O)N1 (stereo not drawn) [Compound 4, 3-(5-(1-(4-chloro-1H-indole-2-carbonyl)piperidin-4-yl)-1-oxoinsoindolin-2-yl)piperidine-2,6-dione]
remaining activity at 1 µM: 104%
remaining activity at 10 µM: 106%

COc1ccc2cc(C(=O)N3CCC(c4ccc5c(c4)CN(C4CCC(=O)NC4=O)C5=O)CC3)[nH]c2c1 (stereo not drawn) [Compound 5, 3-(5-(1-(6-methoxy-1H-indole-2-carbonyl)piperidin-4-yl)-1-oxoinsoindolin-2-yl)piperidine-2,6-dione]
remaining activity at 1 µM: 86.7%
remaining activity at 10 µM: 88.2%

O=C1CCC(N2Cc3cc(C4CCN(C(=O)c5cc6c(Cl)cc(Cl)cc6[nH]5)CC4)ccc3C2=O)C(=O)N1 (stereo not drawn) [Compound 6, 3-(5-(1-(4,6-dichloro-1H-indole-2-carbonyl)piperidin-4-yl)-1-oxoinsoindolin-2-yl)piperidine-2,6-dione]
remaining activity at 1 µM: 107%
remaining activity at 10 µM: 107%

O=C1CCC(N2Cc3cc(C4CCN(C(=O)c5cc6ccc(F)cc6[nH]5)CC4)ccc3C2=O)C(=O)N1 (stereo not drawn) [Compound 7, 3-(5-(1-(6-fluoro-1H-indole-2-carbonyl)piperidin-4-yl)-1-oxoinsoindolin-2-yl)piperidine-2,6-dione]
remaining activity at 1 µM: 93.3%
remaining activity at 10 µM: 98.6%

O=C1CCC(N2Cc3cc(C4CCN(C(=O)c5cc6cccc(Cl)c6[nH]5)CC4)ccc3C2=O)C(=O)N1 (stereo not drawn) [Compound 8, 3-(5-(1-(7-chloro-1H-indole-2-carbonyl)piperidin-4-yl)-1-oxoinsoindolin-2-yl)piperidine-2,6-dione]
remaining activity at 1 µM: 99.5%
remaining activity at 10 µM: 109%

O=C1CCC(N2Cc3cc(C4CCN(C(=O)c5cc6ccccc6[nH]5)CC4)ccc3C2=O)C(=O)N1 (stereo not drawn) [Compound 9, 3-(5-(1-(1H-indole-2-carbonyl)piperidin-4-yl)-1-oxoinsoindolin-2-yl)piperidine-2,6-dione]
remaining activity at 1 µM: 94.5%
remaining activity at 10 µM: 99.5%

COc1ccc2[nH]c(C(=O)N3CCC(c4ccc5c(c4)CN(C4CCC(=O)NC4=O)C5=O)CC3)cc2c1 (stereo not drawn) [Compound 10, 3-(5-(1-(5-methoxy-1H-indole-2-carbonyl)piperidin-4-yl)-1-oxoinsoindolin-2-yl)piperidine-2,6-dione]
remaining activity at 1 µM: 94.6%
remaining activity at 10 µM: 97.3%

COc1cccc2[nH]c(C(=O)N3CCC(c4ccc5c(c4)CN(C4CCC(=O)NC4=O)C5=O)CC3)cc12 (stereo not drawn) [Compound 11, 3-(5-(1-(4-methoxy-1H-indole-2-carbonyl)piperidin-4-yl)-1-oxoinsoindolin-2-yl)piperidine-2,6-dione]
remaining activity at 1 µM: 99.5%
remaining activity at 10 µM: 98%

COc1cccc2cc(C(=O)N3CCC(c4ccc5c(c4)CN(C4CCC(=O)NC4=O)C5=O)CC3)[nH]c12 (stereo not drawn) [Compound 12, 3-(5-(1-(7-methoxy-1H-indole-2-carbonyl)piperidin-4-yl)-1-oxoinsoindolin-2-yl)piperidine-2,6-dione]
remaining activity at 1 µM: 89.9%
remaining activity at 10 µM: 94.1%

Cc1cccc2[nH]c(C(=O)N3CCC(c4ccc5c(c4)CN(C4CCC(=O)NC4=O)C5=O)CC3)cc12 (stereo not drawn) [Compound 14, 3-(5-(1-(4-methyl-1H-indole-2-carbonyl)piperidin-4-yl)-1-oxoinsoindolin-2-yl)piperidine-2,6-dione]
remaining activity at 1 µM: 89%
remaining activity at 10 µM: 98.4%

Cc1ccc2cc(C(=O)N3CCC(c4ccc5c(c4)CN(C4CCC(=O)NC4=O)C5=O)CC3)[nH]c2c1 (stereo not drawn) [Compound 15, 3-(5-(1-(6-methyl-1H-indole-2-carbonyl)piperidin-4-yl)-1-oxoinsoindolin-2-yl)piperidine-2,6-dione]
remaining activity at 1 µM: 66.9%
remaining activity at 10 µM: 73%

Cc1cccc2cc(C(=O)N3CCC(c4ccc5c(c4)CN(C4CCC(=O)NC4=O)C5=O)CC3)[nH]c12 (stereo not drawn) [Compound 16, 3-(5-(1-(7-methyl-1H-indole-2-carbonyl)piperidin-4-yl)-1-oxoinsoindolin-2-yl)piperidine-2,6-dione]
remaining activity at 1 µM: 78.5%
remaining activity at 10 µM: 80.4%

O=C1CCC(N2Cc3cc(C4CCN(C(=O)c5cc6cc(F)ccc6[nH]5)CC4)ccc3C2=O)C(=O)N1 (stereo not drawn) [Compound 17, 3-(5-(1-(5-fluoro-1H-indole-2-carbonyl)piperidin-4-yl)-1-oxoinsoindolin-2-yl)piperidine-2,6-dione]
remaining activity at 1 µM: 95%
remaining activity at 10 µM: 96.6%

O=C1CCC(N2Cc3cc(C4CCN(C(=O)c5cc6ccc(O)cc6[nH]5)CC4)ccc3C2=O)C(=O)N1 (stereo not drawn) [Compound 18, 3-(5-(1-(6-hydroxy-1H-indole-2-carbonyl)piperidin-4-yl)-1-oxoinsoindolin-2-yl)piperidine-2,6-dione]
remaining activity at 1 µM: 53.6%
remaining activity at 10 µM: 54.4%

O=C1CCC(N2Cc3cc(C4CCN(C(=O)c5cc6cccc(F)c6[nH]5)CC4)ccc3C2=O)C(=O)N1 (stereo not drawn) [Compound 19, 3-(5-(1-(7-fluoro-1H-indole-2-carbonyl)piperidin-4-yl)-1-oxoinsoindolin-2-yl)piperidine-2,6-dione]
remaining activity at 1 µM: 80.5%
remaining activity at 10 µM: 82.7%

Cc1c(C(=O)N2CCC(c3ccc4c(c3)CN(C3CCC(=O)NC3=O)C4=O)CC2)[nH]c2ccccc12 (stereo not drawn) [Compound 21, 3-(5-(1-(3-methyl-1H-indole-2-carbonyl)piperidin-4-yl)-1-oxoinsoindolin-2-yl)piperidine-2,6-dione]
remaining activity at 1 µM: 37%
remaining activity at 10 µM: 37.3%

O=C1CCC(N2Cc3cc(C4CCN(C(=O)c5[nH]c6ccccc6c5Cl)CC4)ccc3C2=O)C(=O)N1 (stereo not drawn) [Compound 22, 3-(5-(1-(3-chloro-1H-indole-2-carbonyl)piperidin-4-yl)-1-oxoinsoindolin-2-yl)piperidine-2,6-dione]
remaining activity at 1 µM: 64.5%
remaining activity at 10 µM: 67%

O=C1CCC(N2Cc3cc(C#CCC4CCN(C(=O)c5c[nH]c6ccccc56)CC4)ccc3C2=O)C(=O)N1 (stereo not drawn) [Compound 23, 3-(5-(3-(1-(1H-indole-3-carbonyl)piperidin-4-yl)prop-1-yn-1-yl)-1-oxoinsoindolin-2-yl)piperidine-2,6-dione]
remaining activity at 1 µM: 101%
remaining activity at 10 µM: 99.6%

O=C1CCC(N2Cc3cc(C=C4CCN(C(=O)c5cc6ccccc6[nH]5)CC4)ccc3C2=O)C(=O)N1 (stereo not drawn) [Compound 24, 3-(5-((1-(1H-indole-2-carbonyl)piperidin-4-ylidene)methyl)-1-oxoinsoindolin-2-yl)piperidine-2,6-dione]
remaining activity at 1 µM: 93.7%
remaining activity at 10 µM: 88.2%

O=C1CCC(N2Cc3cc(C=C4CCN(C(=O)c5c[nH]c6ccccc56)CC4)ccc3C2=O)C(=O)N1 (stereo not drawn) [Compound 25, 3-(5-((1-(1H-indole-3-carbonyl)piperidin-4-ylidene)methyl)-1-oxoinsoindolin-2-yl)piperidine-2,6-dione]
remaining activity at 1 µM: 93.6%
remaining activity at 10 µM: 87.5%

O=C1CCC(N2Cc3cc(C=C4CCN(C(=O)c5cc6ccc(Cl)cc6[nH]5)CC4)ccc3C2=O)C(=O)N1 (stereo not drawn) [Compound 26, 3-(5-((1-(6-chloro-1H-indole-2-carbonyl)piperidin-4-ylidene)methyl)-1-oxoinsoindolin-2-yl)piperidine-2,6-dione]
remaining activity at 1 µM: 96%
remaining activity at 10 µM: 97.6%

Cc1c(C(=O)N2CCC(=Cc3ccc4c(c3)CN(C3CCC(=O)NC3=O)C4=O)CC2)[nH]c2ccccc12 (stereo not drawn) [Compound 27, 3-(5-((1-(3-methyl-1H-indole-2-carbonyl)piperidin-4-ylidene)methyl)-1-oxoinsoindolin-2-yl)piperidine-2,6-dione]
remaining activity at 1 µM: 96.4%
remaining activity at 10 µM: 91.7%
